From ChEMBL document CHEMBL1201862, “PubChem BioAssay data set” (2004)
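Step 1: Grow cells in 96-well plates. Step 2: Expose to compound for 48 hours at 5 concentrations. Step 3: Interpolate endpoints linearly; if unreached, use highest concentration. GI50 is the concentration that inhibits growth by half.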 Calls of active or inactive are those of the source. No stated cut-off is given here; in the data, active = GI50 up to about 1.1 µM and inactive = higher.

Assays:
Experiment in all cases: inhibition of tumour cell growth, NCI panel, 48 h
SF-268 = test system: SF-268
SW-620 = test system: SW-620
M14 = test system: M14
MCF7 = test system: MCF7
SN12C = test system: SN12C
TK-10 = test system: TK-10
K562 = test system: K562
SK-MEL-5 = test system: SK-MEL-5
DU-145 = test system: DU-145
NCI-H226 = test system: NCI-H226
NCI-H23 = test system: NCI-H23
SF-295 = test system: SF-295
SF-539 = test system: SF-539
OVCAR-4 = test system: OVCAR-4
UACC-62 = test system: UACC-62
RPMI-8226 = test system: RPMI-8226
CAKI-1 = test system: CAKI-1
SK-MEL-2 = test system: SK-MEL-2

Measured: GI50

CCOC(O)C(F)(F)F (stereo not given)
inactive: SF-268 > 100 µM | SW-620 > 100 µM | M14 > 100 µM | MCF7 > 100 µM | SN12C > 100 µM | TK-10 > 100 µM | K562 > 100 µM | SK-MEL-5 > 100 µM | DU-145 > 100 µM | NCI-H226 > 100 µM | NCI-H23 > 100 µM | SF-295 > 100 µM

CN(C)c1cccc2c1C(=O)C=CC21CCc2ccc(N(C)C)c3c(N(C)C)ccc1c23 (stereo not given)
inactive: SF-268 14.4 µM | SW-620 16.1 µM | M14 14.2 µM | SF-539 16.3 µM | MCF7 11.7 µM | SN12C 12.2 µM | TK-10 14.6 µM | OVCAR-4 14.8 µM | UACC-62 12.9 µM | K562 3.96 µM | SK-MEL-5 16.3 µM | DU-145 5.26 µM | NCI-H226 17.1 µM | RPMI-8226 16.9 µM | NCI-H23 16.9 µM | SF-295 18.8 µM | CAKI-1 21.4 µM

O=C1CC2(CCC(O)(c3ccc4ccccc4c3)C(C(=O)c3ccc4ccccc4c3)C2)C(=O)c2ccccc2N1 (stereo not given)
inactive: SF-268 > 100 µM | SW-620 > 100 µM | M14 53.1 µM | SF-539 > 100 µM | MCF7 7.59 µM | SN12C > 100 µM | TK-10 > 100 µM | SK-MEL-2 > 100 µM | UACC-62 > 100 µM | K562 > 100 µM | SK-MEL-5 23 µM | DU-145 > 100 µM | NCI-H226 > 100 µM | NCI-H23 > 100 µM | SF-295 > 100 µM | CAKI-1 > 100 µM

COC(=O)C(NC(=O)OC(C)(C)C)P(=O)(OC)OC (stereo not given)
inactive: SF-268 > 100 µM | SW-620 > 100 µM | M14 > 100 µM | MCF7 > 100 µM | SN12C > 100 µM | TK-10 > 100 µM | OVCAR-4 > 100 µM | SK-MEL-2 > 100 µM | UACC-62 > 100 µM | K562 > 100 µM | SK-MEL-5 > 100 µM | DU-145 > 100 µM | NCI-H226 > 100 µM | RPMI-8226 > 100 µM | NCI-H23 > 100 µM | SF-295 > 100 µM | CAKI-1 > 100 µM

CC(C)N(C)C(=O)C12C3C4C1C1C2C3C41C#N (stereo not given)
inactive: SF-268 > 100 µM | SW-620 > 100 µM | M14 > 100 µM | SF-539 > 100 µM | MCF7 > 100 µM | SN12C > 100 µM | TK-10 > 100 µM | OVCAR-4 > 100 µM | SK-MEL-2 > 100 µM | UACC-62 > 100 µM | K562 > 100 µM | SK-MEL-5 > 100 µM | DU-145 > 100 µM | NCI-H23 > 100 µM | SF-295 > 100 µM | CAKI-1 > 100 µM

N#Cc1c(-c2ccccc2)c(CN2CCCCC2)c(=O)n2c1[nH]c1ccccc12
inactive: SF-268 45.1 µM | SW-620 54.3 µM | M14 30.1 µM | SF-539 38.1 µM | MCF7 13.2 µM | SN12C 25.1 µM | TK-10 28.4 µM | OVCAR-4 46.3 µM | SK-MEL-2 37.3 µM | K562 24.7 µM | SK-MEL-5 5.05 µM | NCI-H226 > 100 µM | NCI-H23 37.9 µM | SF-295 36.8 µM | CAKI-1 26.3 µM

O=C1CCCC2=C1CC1=C(CCCC1=O)N2c1cccc([N+](=O)[O-])c1
inactive: SF-268 > 100 µM | SW-620 > 100 µM | M14 > 100 µM | SF-539 > 100 µM | MCF7 64 µM | SN12C > 100 µM | TK-10 > 100 µM | OVCAR-4 > 100 µM | UACC-62 > 100 µM | K562 > 100 µM | SK-MEL-5 > 100 µM | NCI-H226 > 100 µM | RPMI-8226 > 100 µM | NCI-H23 > 100 µM | CAKI-1 > 100 µM

CN(C)CCCn1c(-c2ccc(Br)cc2)cs/c1=N\c1ccccc1
inactive: SF-268 17.1 µM | M14 12.6 µM | SF-539 14 µM | MCF7 16 µM | SN12C 18.5 µM | TK-10 15.9 µM | OVCAR-4 16.1 µM | SK-MEL-2 15.7 µM | UACC-62 13.7 µM | K562 11.6 µM | NCI-H226 13.2 µM | RPMI-8226 12.6 µM | NCI-H23 10.7 µM | SF-295 11.2 µM | CAKI-1 10.2 µM

COC1CC(C)(NC(=O)C(F)(F)F)C2OC(c3ccccc3)OCC2O1 (stereo not given)
inactive: SF-268 > 100 µM | SW-620 > 100 µM | M14 > 100 µM | SF-539 > 100 µM | MCF7 > 100 µM | SN12C > 100 µM | TK-10 > 100 µM | OVCAR-4 > 100 µM | UACC-62 > 100 µM | K562 > 100 µM | SK-MEL-5 > 100 µM | DU-145 > 100 µM | NCI-H226 > 100 µM | RPMI-8226 > 100 µM | NCI-H23 > 100 µM | SF-295 > 100 µM | CAKI-1 > 100 µM
